Like-named read-outs stand apart in the source and are kept apart here.
Legend:
[1] = system: Mycosphaerella graminicola; anamorph: Septoria tritici (SEPTTR); experiment: Leaf blotch of wheat (SEPTTR) whole-plant fungicidal test; assay type: in vivo; conditions: Zymoseptoria tritici, topical; for pest or weed control at 121.5 g/ha: low volume (track spray) application, 121.5 g/H; for pest or weed control at 100 ppm: high volume application
Experimental: (§1) All fungicides were evaluated using the aforementioned method for their activity vs. all target diseases, unless stated otherwise. Wheat leaf blotch and brown rust activity were also evaluated using track spray applications, in which case the fungicides were formulated as EC formulations, containing 0.1% Trycol 5941 in the spray solutions. Wheat plants (variety Yuma) were grown from seed in a greenhouse in 50% mineral soil/50% soil-less Metro mix until the first leaf was fully emerged, with 7-10 seedlings per pot. These plants were inoculated with an aqueous spore suspension of Septoria tritici either prior to or after fungicide treatments. After inoculation the plants were kept in 100% relative humidity (one day in a dark dew chamber followed by two to three days in a lighted dew chamber at 20° C.) to permit spores to germinate and infect the leaf. The plants were then transferred to a greenhouse set at 20° C. for disease to develop. When disease symptoms were fully expressed on the 1st leaves of untreated plants, infection levels were assessed on a scale of 0 to 100 percent disease severity. Percent disease control was calculated using the ratio of disease severity on treated plants relative to untreated plants.

[2] = system: Puccinia triticina; synonym: Puccinia recondita f. sp. tritici (PUCCRT); experiment: Wheat brown rust (PUCCRT) whole-plant fungicidal test; assay type: in vivo; conditions: topical; for pest or weed control at 121.5 g/ha: low volume (track spray) application, 121.5 g/H; for pest or weed control at 100 ppm: high volume application
Experimental: as §1, with “plants. Wheat plants (variety Yuma) were grown from seed in a greenhouse in 50% mineral soil/50% soil-less Metro mix until the first leaf was fully emerged, with 7-10 seedlings per pot. These plants were inoculated with an aqueous spore suspension of Puccinia triticina either prior to or after fungicide treatments. […] The plants were then transferred to a greenhouse set at 24° C. for disease to develop. Fungicide formulation, application and disease assessment followed the procedures as described in the Example A.” for “plants.”

[3] = 24 h, 1 Day Protectant, read-out: Low Volume activity at 121.5 g/H SEPTTR 1DP (% disease control rating)
[4] = 72 h, 3 Day Curative, read-out: Low Volume activity at 121.5 g/H SEPTTR 3DC (% disease control rating)
[5] = 24 h, 1 Day Protectant, read-out: Low Volume activity at 121.5 g/H PUCCRT 1DP (% disease control rating)
[6] = 72 h, 3 Day Curative, read-out: Low Volume activity at 121.5 g/H PUCCRT 3DC (% disease control rating)
[7] = 24 h, 1 Day Protectant, read-out: High Volume activity at 100 ppm SEPTTR 1DP (% disease control rating)
[8] = 72 h, 3 Day Curative, read-out: High Volume activity at 100 ppm SEPTTR 3DC (% disease control rating)
[9] = 24 h, 1 Day Protectant, read-out: High Volume activity at 100 ppm PUCCRT 1DP (% disease control rating)
[10] = 72 h, 3 Day Curative, read-out: High Volume activity at 100 ppm PUCCRT 3DC (% disease control rating)

SMILES | pest or weed control at 121.5 g/ha [1, 3] | pest or weed control at 121.5 g/ha [1, 4] | pest or weed control at 121.5 g/ha [2, 5] | pest or weed control at 121.5 g/ha [2, 6] | pest or weed control at 100 ppm [1, 7] | pest or weed control at 100 ppm [1, 8] | pest or weed control at 100 ppm [2, 9] | pest or weed control at 100 ppm [2, 10]
COc1ccnc(C(=O)N[C@H]2CCC[C@H](Cc3ccc(Cl)cc3)[C@@H](C3CCCC3)[C@H](C)OC2=O)c1OCOC(C)=O [Compound 29] | > 70% | > 70% | > 70% | < 70% | – | – | – | –
COc1ccnc(C(=O)N[C@H]2CCC[C@H](Cc3ccc(C(F)(F)F)cc3)[C@@H](Cc3ccc(OC(F)(F)F)cc3)[C@H](C)OC2=O)c1OC(C)=O [Compound 67] | < 70% | < 70% | < 70% | < 70% | – | – | – | –
CCC[C@H]1CCC[C@H](NC(=O)c2nccc(OC)c2O)C(=O)O[C@@H](C)[C@@H]1c1ccccc1 [Compound 91] | – | – | – | – | > 70% | > 70% | > 70% | < 70%
COc1ccnc(C(=O)N[C@H]2CCC[C@H](CCCc3ccccc3)[C@@H](CC(C)C)[C@H](C)OC2=O)c1OC(C)=O [Compound 56] | > 70% | < 70% | > 70% | < 70% | – | – | – | –
COc1ccnc(C(=O)N[C@H]2CCC[C@H](Cc3ccccc3)[C@@H](C3CCCC3)[C@H](C)OC2=O)c1OC(C)=O [Compound 9] | > 70% | > 70% | > 70% | < 70% | – | – | – | –
CCC[C@H]1CCC[C@H](NC(=O)c2nccc(OC)c2OC(C)=O)C(=O)O[C@@H](C)[C@@H]1c1ccccc1 [Compound 55] | > 70% | > 70% | > 70% | > 70% | – | – | – | –
COc1ccnc(C(=O)N[C@H]2CCC[C@H](Cc3ccccc3)[C@@H](Cc3ccccc3)[C@H](C)OC2=O)c1OCOC(=O)C(C)C [Compound 7, ((2-(((3S,7R,8R,9S)-7,8-dibenzyl-9-methyl-2-oxooxonan-3-yl)carbamoyl)-4-methoxypyridin-3-yl)oxy)methyl isobutyrate] | > 70% | > 70% | > 70% | > 70% | – | – | – | –
CCC[C@H]1CCC[C@H](NC(=O)c2nccc(OC)c2OC(C)=O)C(=O)O[C@@H](C)[C@@H]1Cc1ccccc1 [Compound 38] | > 70% | > 70% | > 70% | > 70% | – | – | – | –
COc1ccnc(C(=O)N[C@H]2CCC[C@H](CCC(C)C)[C@@H](CCc3ccccc3)[C@H](C)OC2=O)c1O [Compound 83] | – | – | – | – | > 70% | < 70% | > 70% | < 70%
CCC[C@H]1CCC[C@H](NC(=O)c2nccc(OC)c2OCOC(C)=O)C(=O)O[C@@H](C)[C@@H]1Cc1ccccc1 [Compound 37] | > 70% | > 70% | > 70% | > 70% | – | – | – | –
CCOCC(=O)OCOc1c(OC)ccnc1C(=O)N[C@H]1CCC[C@H](Cc2ccccc2)[C@@H](CCc2ccccc2)[C@H](C)OC1=O [Compound 16] | > 70% | > 70% | > 70% | > 70% | – | – | – | –
COc1ccnc(C(=O)N[C@H]2CCC[C@H](Cc3ccc(C(F)(F)F)cc3)[C@@H](Cc3ccccc3)[C@H](C)OC2=O)c1OC(C)=O [Compound 25] | < 70% | < 70% | < 70% | < 70% | – | – | – | –
COc1ccnc(C(=O)N[C@H]2CCC[C@H](Cc3ccc(C(F)(F)F)cc3)[C@@H](Cc3ccc(OC(F)(F)F)cc3)[C@H](C)OC2=O)c1O [Compound 96] | – | – | – | – | < 70% | < 70% | < 70% | < 70%
CCCC[C@@H]1[C@@H](Cc2ccccc2)CCC[C@H](NC(=O)c2nccc(OC)c2O)C(=O)O[C@H]1C [Compound 71, N-((3S,7R,8R,9S)-7-benzyl-8-butyl-9-methyl-2-oxooxonan-3-yl)-3-hydroxy-4-methoxypicolinamide] | – | – | – | – | > 70% | < 70% | > 70% | > 70%
COc1ccnc(C(=O)N[C@H]2CCC[C@H](CC3CC3)[C@@H](Cc3ccccc3)[C@H](C)OC2=O)c1O [Compound 94] | > 70% | > 70% | > 70% | < 70% | – | – | – | –
COc1ccnc(C(=O)N[C@H]2CCC[C@H](CCC(C)C)[C@@H](C3CCCC3)[C@H](C)OC2=O)c1O [Compound 87] | – | – | – | – | > 70% | < 70% | > 70% | < 70%
CCC[C@H]1CCC[C@H](NC(=O)c2nccc(OC)c2O)C(=O)O[C@@H](C)[C@@H]1Cc1ccccc1 [Compound 82] | – | – | – | – | < 70% | > 70% | > 70% | > 70%
COc1ccnc(C(=O)N[C@H]2CCC[C@H](CCCc3ccccc3)[C@@H](Cc3ccc(OC(F)(F)F)cc3)[C@H](C)OC2=O)c1OC(C)=O [Compound 57] | < 70% | < 70% | < 70% | < 70% | – | – | – | –
COc1ccnc(C(=O)N[C@H]2CCC[C@H](CCC(C)C)[C@@H](C3CCCC3)[C@H](C)OC2=O)c1OCOC(=O)C(C)C [Compound 44] | > 70% | > 70% | > 70% | < 70% | – | – | – | –
COc1ccnc(C(=O)N[C@H]2CCC[C@H](CCCc3ccccc3)[C@@H](CC(C)C)[C@H](C)OC2=O)c1O [Compound 92] | – | – | – | – | > 70% | < 70% | > 70% | < 70%
COc1ccnc(C(=O)N[C@H]2CCC[C@H](Cc3ccccc3)[C@@H](CCC(C)C)[C@H](C)OC2=O)c1OC(=O)C(C)C [Compound 49] | > 70% | > 70% | < 70% | < 70% | – | – | – | –
CCC[C@H]1CCC[C@H](NC(=O)c2nccc(OC)c2OCOC(C)=O)C(=O)O[C@@H](C)[C@@H]1c1ccccc1 [Compound 54] | > 70% | > 70% | > 70% | > 70% | – | – | – | –
COc1ccnc(C(=O)N[C@H]2CCC[C@H](Cc3ccc(Cl)cc3)[C@@H](CC(C)C)[C@H](C)OC2=O)c1O [Compound 76] | – | – | – | – | > 70% | > 70% | > 70% | < 70%
COc1ccnc(C(=O)N[C@H]2CCC[C@H](Cc3ccc(C(F)(F)F)cc3)[C@@H](CC(C)C)[C@H](C)OC2=O)c1OCOC(=O)C(C)C [Compound 24] | > 70% | < 70% | < 70% | < 70% | – | – | – | –
COc1ccnc(C(=O)N[C@H]2CCC[C@H](Cc3ccc(C(F)(F)F)cc3)[C@@H](CC(C)C)[C@H](C)OC2=O)c1O [Compound 80] | – | – | – | – | > 70% | < 70% | > 70% | < 70%

From patent US20150322051A1, “Macrocyclic picolinamides as fungicides” (Dow AgroSciences LLC, priority 2014, published 2015)
